Test results: the NIST ThermoML archive (doi:10.1016/j.fluid.2018.07.022)
Numbers after ± are expanded uncertainties.

Conditions: Liquid, Pendant drop shape

[HH] [hydrogen] + O
Conditions | interfacial tension [mN/m]
298.03 K, 500 kPa | 72.3 ± 1.2
298.03 K, 1000 kPa | 72.9 ± 1.2
298.04 K, 2000 kPa | 73 ± 1.2
298.04 K, 5000 kPa | 72.6 ± 1.2
298.04 K, 7500 kPa | 72.2 ± 1.2
298.04 K, 10100 kPa | 71.9 ± 1.2
298.04 K, 25000 kPa | 70.3 ± 1.2
298.05 K, 3500 kPa | 72.8 ± 1.2
298.05 K, 45200 kPa | 68.7 ± 1.2
298.06 K, 15000 kPa | 71.3 ± 1.2
298.06 K, 20100 kPa | 70.8 ± 1.2
298.06 K, 30100 kPa | 69.8 ± 1.2
298.09 K, 39900 kPa | 69.1 ± 1.2
322.9 K, 1000 kPa | 69.3 ± 1.2
322.98 K, 2000 kPa | 69.3 ± 1.2
322.99 K, 5000 kPa | 68.9 ± 1.2
323 K, 3500 kPa | 69.1 ± 1.2
323 K, 10000 kPa | 68.3 ± 1.2
323 K, 15000 kPa | 67.8 ± 1.2
323 K, 40100 kPa | 65.8 ± 1.1
323.01 K, 20000 kPa | 67.2 ± 1.1
323.01 K, 25000 kPa | 66.8 ± 1.1
323.02 K, 500 kPa | 68.9 ± 1.2
323.02 K, 30100 kPa | 66.5 ± 1.1
372.73 K, 15000 kPa | 59 ± 1
372.74 K, 500 kPa | 59.8 ± 1
372.77 K, 1000 kPa | 59.7 ± 1
372.77 K, 25200 kPa | 58.5 ± 1
372.77 K, 29800 kPa | 58.1 ± 1
372.78 K, 2000 kPa | 59.7 ± 1
372.78 K, 40100 kPa | 57.6 ± 1
372.81 K, 10000 kPa | 59.3 ± 1
372.85 K, 20100 kPa | 58.7 ± 1
372.87 K, 5000 kPa | 59.5 ± 1
448.02 K, 2000 kPa | 44.1 ± 0.8
448.04 K, 1500 kPa | 44 ± 0.8
448.24 K, 5000 kPa | 43.8 ± 0.7
448.28 K, 15000 kPa | 43.4 ± 0.7
448.29 K, 10000 kPa | 43.7 ± 0.7
448.31 K, 25000 kPa | 43.2 ± 0.7
448.31 K, 30100 kPa | 42.9 ± 0.7
448.33 K, 20000 kPa | 43.3 ± 0.7
448.35 K, 40100 kPa | 43.2 ± 0.7
